This passage reports ED50 results from ChEMBL document CHEMBL1142041, “3-(2,5-Dihydro-1H-pyrrol-2-ylmethoxy)pyridines: synthesis and analgesic activity” (2005).

The structures appear in SMILES notation.

Assay [1] concerns Mus musculus. Kind of assay: Analgesic activity of compound in phase II mouse formalin activities at a dose range of […], s.c.; exhibited confounding effects. Type of assay: functional, organism-based.
The test system of assay [2] is Mus musculus. Kind of assay: Analgesic activity of compound in phase I mouse formalin activities at a dose range of […], s.c.; exhibited confounding effects. It is filed as functional, organism-based.
Assay [3] has as its system Mus musculus. Kind of assay: Analgesic activity of compound in phase I mouse formalin activities at a dose range of 0.4-6.3 mg, s.c. It is filed as functional. The conditions noted are these: sc.
Assay [4] has as its system Mus musculus. Kind of assay: Analgesic activity of compound in phase II mouse formalin activities at a dose range of 0.4-6.3 mg, s.c. It is filed as functional. The conditions noted are these: sc.
For assay [5], the system named is Mus musculus. Kind of assay: Analgesic activity of compound in phase II mouse formalin activities at a dose range of 0.4-3.1 mg, s.c. It is filed as functional. The conditions noted are these: sc.
For assay [6], the system named is Mus musculus. Kind of assay: Analgesic activity of compound in phase I mouse formalin activities at a dose range of 0.4-3.1 mg, s.c. It is filed as functional. The conditions noted are these: sc.

The term ED50 denotes the dose that gives a 50% effect, or the effect in half of the subjects. The low end stands for an effect at a small dose, the high end for a need for a large dose. `C[C@]1(COc2ccc(Cl)nc2)C=CCN1`: the median effective dose (ED50) entry with Mus musculus [1] and with Mus musculus [2] was “Counfounding effects” each time.
For the compound `C[C@]1(CNc2ccc(Cl)nc2)C=CCN1`, the ED50 entry in the assay on Mus musculus [1] and in the assay with Mus musculus [2] was “Counfounding effects” throughout.
With `Clc1ccc(OC[C@H]2C=CCN2)cn1`, the ED50 in the assay on Mus musculus [3] and in the assay on Mus musculus [4] was 1.6 µmol/kg in each case.
For the compound `C[C@]1(COc2cccnc2)C=CCN1`, the ED50 result in the assay with Mus musculus [1] and in the assay with Mus musculus [2] was “Counfounding effects” in each case.
Consider `Clc1ccc(OC[C@@H]2C=CCN2)cn1`, for which the ED50 result with Mus musculus [1] and with Mus musculus [2] was “Counfounding effects” throughout.
Take `Clc1ccc(OC[C@H]2CCN2)cn1` [TEBANICLINE]: the ED50 turned out to be 0.8 µmol/kg with Mus musculus [5] and 0.9 µmol/kg in the assay with Mus musculus [6].
In the case of `C[C@@]1(COc2ccc(Cl)nc2)C=CCN1`, the ED50 result with Mus musculus [1] and in the assay on Mus musculus [2] was “Counfounding effects” throughout.
